Results taken from patent publication US11247994B2, “6-dithio-substituted-2′-deoxyguanosine compound, preparation method thereof and use thereof” (ZHEJIANG UNIVERSITY, priority 2018, dated 2022).
pIC50: −log10 of the molar value.

Key:
[1] = test system: human breast cancer cells MCF7; assay: MTT assay, tumor cell growth inhibition, MCF7; type: cell-based; conditions: 48 hours
Source text: (§1) MTT Assay—Inhibitory Effect of 6-dithio-substituted-2′-deoxyguanosine Derivatives on Tumor Cell Growth
(§2) We measured the tumor cell growth inhibitory activity of candidate compounds by MTT assay. Human tumor cells in logarithmic growth phase were digested with 0.25% pancreatin for a certain time, centrifuged, re-suspended and counted with a blood cell counting plate to prepare a cell suspension, and the cell suspension was adjusted to 1.0×10^4-1×10^5 cells/mL. The cell suspension was inoculated into a 96-well culture plate, 100 μL per well, and cultured in an incubator with saturated humidity, 37° C. and 5% CO2 for 24 hours until the cells completely adhered to the wall. The test compound was diluted to the required concentration with a complete medium, the complete medium of the 96-well culture plate inoculated with human tumor cells was sucked out, a medicament-containing medium was added, 100 μL per well, the final concentration of DMSO was less than 0.1%, and the culture plate was put in an incubator for 48 hours. 10 μl of MTT was added to each well of the 96-well plate, and the culture was continued for 4 h. The culture was stopped and the culture solution in the well was carefully sucked off. 150 μL DMSO was added to each well, and shaken at a low speed for 10 min on a shaking table, so that the crystal was fully dissolved. The absorbance of each well was measured at OD 570 nm of an enzyme-linked immunosorbent assay instrument. At the same time, zeroing wells (the culture medium, MTT, dimethyl sulfoxide) and control wells (cells, a drug dissolution medium with the same concentration, a culture solution, MTT, dimethyl sulfoxide) were set up, and the cell growth inhibitory activity was calculated with the corresponding solvents as the control. 3-6 multiple wells in each group were set up with repetition of several times. Cell viability of control=(Adrug group−Azeroing well)/(Acontrol well−Azeroing well)*100%. Drawing was drawn, the data were fitted into a concentration response curve with a variable slope, and IC50 value was calculated from the curve.

[2] = test system: human colon cancer cell line HCT116 subcutaneous transplanted tumor; assay: Tumor-bearing test in nude mice, HCT116 subcutaneous transplanted tumor (tumor volume, TUNEL); type: in vivo; conditions: HCT116 model; for Extent of apoptosis in tumor tissue (TUNEL staining, rank order): frozen tumor sections, DAPI and TUNEL, G group = blank; for Inhibitory effect on the growth of subcutaneous transplanted tumor tissue in nude mice (rank order, from slope of tumor volume): compound A 2 mg/kg first 8 times, 10 mg/kg last 4 times, others equimolar, KB = blank
Source text: Tumor-Bearing Test in Nude Mice—Inhibitory Effect of 6-Dithio-Substituted-2′-Deoxyguanosine Derivatives on the Growth of Subcutaneous Transplanted Tumor Tissue in Nude Mice
1) Tumor-Bearing Mouse Model of Human Colon Cancer Cell Line HCT116
(§3) We took human colon cancer cell line HCT116 as the research object, and established a subcutaneous transplanted tumor model of human colon cancer in 32 immunodeficient nude mice. The 24th generation HCT116 cells in logarithmic growth phase were digested with pancreatin to prepare a single-cell suspension, and 1×10^7 cells were inoculated subcutaneously in the right armpit of male nude mice about 5 weeks old. After inoculation, cyclophosphamide (100 mg/kg) was injected intraperitoneally for two consecutive days. […] On the 20th day after colon cancer cell HCT116 was implanted subcutaneously, nude mice were divided into 7 groups by a random number table method, including a test drug group, a positive control group and a blank control group. Specifically, group A: the compound A was administrated; Group B: the compound B was administrated; Group C: the compound C was administrated; Group D: the compound D was administrated; Group E: the compound 6-thio-DG was administrated; Group F: the compound PX-12 was administrated; Group G: blank group, without administration of any compound. Except group C with 3 rats and group G with 4 rats, all other 5 groups had 5 rats, they mice were labeled and injected by tail vein once every two days for 24 days, 12 times, with the dose of compound A being 2 mg/kg for the first 8 times and 10 mg/kg for the last 4 times, and the dosages of other drugs being the same molar weights. The tumor volume was calculated by taking the length of the tumor as the longest diameter and the width as the corresponding vertical diameter, and the tumor volume V=(length×width^2) mm^3/2. 48 hours after the last treatment, blood was taken from the eyes, and then the animals were killed. Blood was centrifuged to get the supernatant, and then blood biochemical analysis was performed. Paraffin embedded sections of fixed tissues were stained with HE. The tumor mass in a frozen tissue was sectioned in a frozen state, and then stained by DAPI and TUNEL to judge the apoptosis of the tumor tissue in nude mice.

[3] = test system: human breast cancer cells Bcap37; assay: MTT assay, tumor cell growth inhibition, Bcap37; type: cell-based; conditions: 48 hours
Source text: as §1, §2

[4] = test system: human leukemia cells K562; assay: MTT assay, tumor cell growth inhibition, K562; type: cell-based; conditions: 48 hours
Source text: as §1, §2

[5] = test system: human colon cancer cells HT29; assay: MTT assay, tumor cell growth inhibition, HT29; type: cell-based; conditions: HT-29, 48 hours
Source text: as §1, §2

TrxR/Trx-1 = target: T1, TrxR/Trx-1 (Homo sapiens, UniProt P10599); assay: Ellman test, inhibition of TrxR/Trx-1 activity; type: biochemical; conditions: Ellman reaction, 37° C. 30 min, absorbance 412 nm; read-out: IC50, inhibition of TrxR/Trx-1 activity
T1 sequence (P10599 2-105 limits assumed): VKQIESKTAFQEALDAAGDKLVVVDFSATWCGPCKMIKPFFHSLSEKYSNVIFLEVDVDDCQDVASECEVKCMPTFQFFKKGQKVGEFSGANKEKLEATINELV
Source text: Ellman Test—Inhibitory Effect of 6-dithio-substituted-2′-deoxyguanosine Derivative Analogues on TrxR/Trx-1 Activity
A TrxR/TR experiment based on the Ellman reaction was used to determine the inhibitory activity of candidate compounds. Ellman reaction is that 5,5′-dithiobis (2-nitrobenzoic acid) (DTNB) reacts with sulfhydryl (—SH) to form a yellow substance with absorption at 412 nm. The increase of absorption can be equivalent to the decrease of NADPH mediated by TrxR, thus further judging the activity of TrxR/Trx-1. All experiments were carried out on 96-well plates. Before the start of the enzyme reaction, five groups of corresponding test compound stock solutions with different concentrations were prepared. In the TrxR/Trx-1 reaction, a total volume per well was 60 μL, including 100 mM HEPES, 5 mM EDTA (HE buffer, pH 7.5), 1 mM NADPH, 1.0 μM TrxR, 0.8 μM Trx-1, 2.5 mg/mL bovine insulin and the required concentration of compounds to be tested. No compound to be tested was added to the control group. No compound to be tested, TrxR and Trx-1 were added in the blank group. The plate was shaken on an oscillator for 30 seconds to fully mix the reactants. After incubation at 37° C. for 30 min, 100 μL of the prepared mixture containing 6 M guanidine hydrochloride, 50 mm Tris and 10 mm DTNB was added to terminate the reaction. After 15 minutes of incubation, the absorbance was measured at 412 nm. Finally, TrxR/Trx-1 activity %=(Atest−Akb)/(Acontrol−Akb), that is, the relative percentage of TrxR/Trx-1 activity was the activity inhibited by adding 2′-deoxyguanosine derivatives relative to the activity without 2′-deoxyguanosine derivatives. The data were fitted into a concentration response curve with a variable slope, and the IC50 value was calculated from the curve.

[6] = test system: human melanoma cells A375; assay: MTT assay, tumor cell growth inhibition, A375; type: cell-based; conditions: A-375, 48 hours
Source text: as §1, §2

[7] = test system: human colon cancer cells SW620; assay: MTT assay, tumor cell growth inhibition, SW620; type: cell-based; conditions: SW-620, 48 hours
Source text: as §1, §2

[8] = test system: human liver cancer cells HepG2; assay: MTT assay, tumor cell growth inhibition, HepG2; type: cell-based; conditions: 48 hours
Source text: as §1, §2

NCM460 = assay: MTT assay, cell growth inhibition, NCM460; type: cell-based; conditions: Homo sapiens, 48 hours, read-out: Tumor cell growth inhibition IC50, NCM460
Source text: as §1, §2

[9] = Blood biochemical analysis and HE staining of tissues in HCT116 tumor-bearing nude mice; type: in vivo; conditions: tail vein once every two days, 12 times, blood 48 hours after the last treatment
Procedure: as §3

[10] = test system: human gastric cancer cells BGC; assay: MTT assay, tumor cell growth inhibition, BGC; type: cell-based; conditions: 48 hours
Source text: as §1, §2

[11] = test system: human colon cancer cells HCT116; assay: MTT assay, tumor cell growth inhibition, HCT116; type: cell-based; conditions: HCT-116, 48 hours
Source text: as §1, §2

[12] = test system: human non-small cell lung cancer A549; assay: MTT assay, tumor cell growth inhibition, A549; type: cell-based; conditions: 48 hours
Source text: as §1, §2

[13] = tail vein once every two days for 24 days

SMILES | Extent of apoptosis in tumor tissue (TUNEL staining, rank order) [2] | Inhibitory effect on the growth of subcutaneous transplanted tumor tissue in nude mice (rank order, from slope of tumor volume) [2, 13] | pIC50 [3] | pIC50 [4] | pIC50 [5] | pIC50 (TrxR/Trx-1) | pIC50 [6] | pIC50 [7] | pIC50 [8] | pIC50 (NCM460) | Alanine aminotransferase [9] [U/L] | Albumin [9] [g/L] | Alkaline phosphatase [9] [U/L] | Aspartate aminotransferase [9] [U/L] | BUN [9] [mmol/L] | Chloride ion [9] [mmol/L] | Creatine kinase [9] [U/L] | Creatinine [9] [µmol/L] | Glucose [9] [mmol/L] | Potassium ion [9] [mmol/L] | further results
Nc1nc2c(ncn2[C@H]2C[C@H](O)[C@@H](CO)O2)c(=S)[nH]1 [Compound 6-thio-dG, 6-thio-2′-deoxyguanosine, reference compound] | D group>A group≈B group≈E group (6-thio-dG group)>C group>F group (PX-12 group)>G group (KB group) | D>B≈A≈6-thio-dG>PX-12>C>KB | < 4.00 | 4.63 | 5.52 | < 4.00 | 6.40 | < 4.00 | > 5.00 | < 3.00 | 44.3 | 29.8 | 49.6 | 172.4 | 11.5 | 120.8 | 2125 | 12.0 | 3.12 | 7.18 | pIC50 [1]: < 4.00; Sodium ion [9]: 158.8 mmol/L; Total bilirubin [9]: -0.10 µmol/L; Total cholesterol [9]: 2.62 mmol/L; Total protein [9]: 51.8 g/L; Triglyceride [9]: 1.10 mmol/L; pIC50 [10]: < 4.00; pIC50 [11]: 4.76; pIC50 [12]: 4.47
CCC(C)SSc1ncc[nH]1 (centres unmarked) [PX-12, 1-methylpropyl-2-imidazolyl disulfide, reference compound] | D group>A group≈B group≈E group (6-thio-dG group)>C group>F group (PX-12 group)>G group (KB group) | D>B≈A≈6-thio-dG>PX-12>C>KB | < 4.00 | 4.66 | 5.47 | 5.59 | 5.53 | 5.77 | 4.30 to 5.00 | < 3.00 | 30.8 | 33.0 | 44.2 | 169.0 | 8.10 | 109.9 | 1434 | 3.20 | 1.47 | 7.64 | pIC50 [1]: < 4.00; Sodium ion [9]: 155.8 mmol/L; Total bilirubin [9]: -0.90 µmol/L; Total cholesterol [9]: 2.53 mmol/L; Total protein [9]: 56.9 g/L; Triglyceride [9]: 1.18 mmol/L; pIC50 [11]: 4.46; pIC50 [12]: 5.13
CCC(C)SSc1nc(N)nc2c1ncn2C1C[C@H](O)[C@@H](CO)O1 (some centres unmarked) [Compound A, 6-(sec-butyldithio)-2′-deoxyguanosine] | D group>A group≈B group≈E group (6-thio-dG group)>C group>F group (PX-12 group)>G group (KB group) | D>B≈A≈6-thio-dG>PX-12>C>KB | 4.74 | 5.01 | 5.34 | 4.50 | 6.22 | 6.68 | 4.30 to 5.00 | < 3.00 | 33.3 | 24.8 | 36.0 | 153.4 | 10.7 | 113.8 | 1896 | -0.80 | 2.21 | 7.56 | Ability to inhibit the growth of transplanted tumor tissue compared with positive controls ([2]; tail vein once every two days for 24 days, equimolar doses): close to that of the positive control 6-thio-dG and stronger than that of the positive control PX-12; Sodium ion [9]: 155.6 mmol/L; Total bilirubin [9]: 0.40 µmol/L; Total cholesterol [9]: 2.99 mmol/L; Total protein [9]: 52.6 g/L; Triglyceride [9]: 0.84 mmol/L; pIC50 [10]: 5.22; pIC50 [11]: 5.90; pIC50 [12]: 4.51
